# Assay results from patent US11000509B2, “Methods and compositions for daily ophthalmic administration of phentolamine to improve visual performance” (Ocuphire Pharma, Inc., priority 2013, dated 2021).
# Structures can show the parent of a compound that is named as a salt.
# System: eyes of patients with pupil size in dim light of greater than 7 mm
# Test: Example 2 clinical study: monocular high contrast visual acuity under photopic conditions (100% tint chart)
# Assay type: in vivo, humans
# Method: Sixteen patients were randomized into four groups (of four subjects each). Each group was treated on three successive study visits separated by at least 4 days with one drop of ophthalmic oxymetazoline solution (Visine LR®) in each eye followed by one drop test article in each eye. The test article was a 0.2% (w/v) phentolamine mesylate solution, 0.4% (w/v) phentolamine mesylate solution, 0.8% (w/v) phentolamine mesylate solution, or placebo. Test articles contained the designed amount of phentolamine mesylate in a solution of Tears Naturale II® (from Alcon Labs). Placebo was just Tears Naturale II® (from Alcon Labs). Tears Naturale II® (from Alcon Labs) contains Dextran 70 (0.1% by weight), Hydroxypropyl Methylcellulose 2910 (0.3% by weight), Polyquarternium-1 (0.001% by weight), potassium chloride, water (purified), sodium borate, sodium chloride, and hydrochloric acid and/or sodium hydroxide as necessary to adjust the pH. The patients' eye redness and pupil diameters were recorded at baseline (i.e., prior to treatment administration), and at 30 minutes, 1 hour, 2 hours, 4 hours, and 8 hours after administration of test articles. The incidence of any treatment-emergent adverse events was also recorded. Total study duration was approximately nine hours.
# Eye redness of patients' eyes was evaluated by the research assistant and recorded as a single integer of value 0 (no redness) to 4 (extreme redness) at baseline and each time point after treatment. Pupil diameters were measured to within 0.1 mm for each eye at baseline and each subsequent time point using a NeurOptics™ pupilometer. Monocular high contrast visual acuity was measured for each eye under photopic conditions at baseline and each subsequent time point in a darkened room using a Precision Vision™ High Contrast (100% tint) Visual Acuity Chart (Catalog #2102) backlit by the Precision Vision Illumination Box. Monocular low contrast visual acuity was measured for each eye under photopic conditions at baseline and each subsequent time point in a darkened room using a Precision Vision™ Low Contrast (5% tint) Visual Acuity Chart (Catalog #2186) backlit by the Precision Vision Illumination Box. Effect of treatment on glare was assessed using an experimental test method consisting of a panel with a high wattage central light emitting diode (LED) and a set of 7 lower wattage red LEDs radiating horizontally and vertically from the central light.
# Comparisons of changes in mean values within treatment groups were tested for significance using two-tailed paired two sample t-tests with a threshold for significance set at p<0.01 (Bonferroni Correction for multiple paired t-tests). Differences between treatment groups with respect to mean values for pupil size over the course of the study were tested for significance using repeated measure ANOVA (which discards data from subjects lacking any data points). Differences in mean eye redness between treatment groups were evaluated using Kruskal-Wallis nonparametric testing. Differences in means between treatment groups at individual time points were tested for significance using one-way ANOVA.
# [1] = 0.2% (w/v) solution, 30 min after treatment
# [2] = 0.2% (w/v) solution, 1 hour after treatment
# [3] = 0.2% (w/v) solution, 2 hours after treatment
# [4] = 0.2% (w/v) solution, 4 hours after treatment
# [5] = 0.2% (w/v) solution, 8 hours after treatment
# [6] = 0.2% (w/v) solution, Baseline, prior to treatment
# [7] = 0.4% (w/v) solution, 30 min after treatment
# [8] = 0.4% (w/v) solution, 1 hour after treatment
# [9] = 0.4% (w/v) solution, 2 hours after treatment
# [10] = 0.4% (w/v) solution, 4 hours after treatment
# [11] = 0.4% (w/v) solution, 8 hours after treatment
# [12] = 0.4% (w/v) solution, Baseline, prior to treatment
# [13] = 0.8% (w/v) solution, 30 min after treatment
# [14] = 0.8% (w/v) solution, 1 hour after treatment
# [15] = 0.8% (w/v) solution, 2 hours after treatment
# [16] = 0.8% (w/v) solution, 4 hours after treatment
# [17] = 0.8% (w/v) solution, 8 hours after treatment
# [18] = 0.8% (w/v) solution, Baseline, prior to treatment
smiles,measurement,setting,value
"Cc1ccc(N(CC2=NCCN2)c2cccc(O)c2)cc1 [Phentolamine Mesylate, phentolamine mesylate]",Maximum high contrast visual acuity,[1],0.22 LogMar
same,Mean high contrast visual acuity,[1],0.05 LogMar
same,Minimum high contrast visual acuity,[1],−0.32 LogMar
same,Maximum high contrast visual acuity,[2],0.22 LogMar
same,Mean high contrast visual acuity,[2],0.08 LogMar
same,Minimum high contrast visual acuity,[2],−0.20 LogMar
same,Maximum high contrast visual acuity,[3],0.26 LogMar
same,Mean high contrast visual acuity,[3],0.08 LogMar
same,Minimum high contrast visual acuity,[3],−0.22 LogMar
same,Maximum high contrast visual acuity,[4],0.22 LogMar
same,Mean high contrast visual acuity,[4],0.09 LogMar
same,Minimum high contrast visual acuity,[4],−0.20 LogMar
same,Maximum high contrast visual acuity,[5],0.22 LogMar
same,Mean high contrast visual acuity,[5],0.08 LogMar
same,Minimum high contrast visual acuity,[5],−0.32 LogMar
same,Maximum high contrast visual acuity,[6],0.22 LogMar
same,Mean high contrast visual acuity,[6],0.04 LogMar
same,Minimum high contrast visual acuity,[6],−0.32 LogMar
same,Maximum high contrast visual acuity,[7],0.22 LogMar
same,Mean high contrast visual acuity,[7],0.12 LogMar
same,Minimum high contrast visual acuity,[7],−0.20 LogMar
same,Maximum high contrast visual acuity,[8],0.26 LogMar
same,Mean high contrast visual acuity,[8],0.11 LogMar
same,Minimum high contrast visual acuity,[8],−0.20 LogMar
same,Maximum high contrast visual acuity,[9],0.30 LogMar
same,Mean high contrast visual acuity,[9],0.14 LogMar
same,Minimum high contrast visual acuity,[9],−0.10 LogMar
same,Maximum high contrast visual acuity,[10],0.30 LogMar
same,Mean high contrast visual acuity,[10],0.15 LogMar
same,Minimum high contrast visual acuity,[10],−0.11 LogMar
same,Maximum high contrast visual acuity,[11],0.30 LogMar
same,Mean high contrast visual acuity,[11],0.13 LogMar
same,Minimum high contrast visual acuity,[11],−0.18 LogMar
same,Maximum high contrast visual acuity,[12],0.22 LogMar
same,Mean high contrast visual acuity,[12],0.09 LogMar
same,Minimum high contrast visual acuity,[12],−0.24 LogMar
same,Maximum high contrast visual acuity,[13],0.22 LogMar
same,Mean high contrast visual acuity,[13],0.11 LogMar
same,Minimum high contrast visual acuity,[13],−0.16 LogMar
same,Maximum high contrast visual acuity,[14],0.26 LogMar
same,Mean high contrast visual acuity,[14],0.12 LogMar
same,Minimum high contrast visual acuity,[14],−0.10 LogMar
same,Maximum high contrast visual acuity,[15],0.30 LogMar
same,Mean high contrast visual acuity,[15],0.12 LogMar
same,Minimum high contrast visual acuity,[15],−0.16 LogMar
same,Maximum high contrast visual acuity,[16],0.30 LogMar
same,Mean high contrast visual acuity,[16],0.12 LogMar
same,Minimum high contrast visual acuity,[16],−0.20 LogMar
same,Maximum high contrast visual acuity,[17],0.30 LogMar
same,Mean high contrast visual acuity,[17],0.13 LogMar
same,Minimum high contrast visual acuity,[17],−0.20 LogMar
same,Maximum high contrast visual acuity,[18],0.22 LogMar
same,Mean high contrast visual acuity,[18],0.06 LogMar
same,Minimum high contrast visual acuity,[18],−0.41 LogMar
same,maximal mean increase in high contrast visual acuity,"0.8%, at 4 and 8 hours",0.06 Log Mar
same,improvement in high contrast vision,"0.8%, at 4 and 8 hours, equivalent of the maximal mean increase",~3 letters on a Snellen chart
